Converted amounts (≈) assume the structure as drawn. “And” between values parts separate entries of the source, which are not always exact repeats. Equal entries are not always repeated. Marks after values point to notes of the source that are not given here.
Columns and labels:
[1] = tested on: VRE; assay: Broth microdilution MIC, Example 7 (NCL812 and analogues); format: cell-based, Enterococcus spp.; settings: for activity against VRE among analogues: MIC testing, two VRE strains; for VRE / MIC: bioassay ranking, VRE; for MIC (μg/ml) at 24 hours, VRE 1: isolate VRE 1; for MIC (μg/ml) at 24 hours, VRE 1 / MIC (μg/ml) at 24 hours, VRE 2: 1st and 2nd replicate rows; for MIC (μg/ml) at 24 hours, VRE 2: isolate VRE 2; for MIC: Enterococcus, read-out: VRE
In short: (§1)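 CLSI broth microdilution against two MRSA and two VRE strains, tested in duplicate with a third run if results differed by more than one two-fold dilution.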

[2] = tested on: Pseudomonas aeruginosa; assay: as above; format: cell-based; settings: 24 hours; 1st and 2nd replicate rows
[3] = Bioassay ranking of the analogues tested; settings: M + R (MRSA and VRE combined)
[4] = tested on: Escherichia coli; assay: Broth microdilution MIC, Example 7 (NCL812 and analogues); format: cell-based; settings: 24 hours; 1st and 2nd replicate rows
[5] = tested on: MRSA; assay: as above; format: cell-based, Staphylococcus aureus; settings: for activity against MRSA among analogues: MIC testing, two MRSA strains; for MRSA / MIC: bioassay ranking, MRSA; for MIC (μg/ml) at 24 hours, MRSA 1: isolate MRSA 1; for MIC (μg/ml) at 24 hours, MRSA 1 / MIC (μg/ml) at 24 hours, MRSA 2: 1st and 2nd replicate rows; for MIC (μg/ml) at 24 hours, MRSA 2: isolate MRSA 2; for MIC: Staphylococcus aureus, read-out: MRSA
In short: as §1

| Structure (SMILES) | MIC (μg/ml) at 24 hours, VRE 1 [1] | MIC (μg/ml) at 24 hours, VRE 2 [1] | MIC (μg/ml) at 24 hours, P. aeruginosa [2] | MIC (μg/ml) at 24 hours, E. coli [4] | MIC (μg/ml) at 24 hours, MRSA 1 [5] | MIC (μg/ml) at 24 hours, MRSA 2 [5] | MIC [1] | MIC [5] | activity against VRE among analogues [1] | VRE [1] | M + R [3] | activity against MRSA among analogues [5] | MRSA [5] |
| --- | --- | --- | --- | --- | --- | --- | --- | --- | --- | --- | --- | --- | --- |
| Cl.N=C(N/N=C/c1ccc(F)cc1)N/N=C/c1ccc(F)cc1 [NCL021] | 8 µg/mL | 8 µg/mL | >128 µg/mL | >128 µg/mL | 16 µg/mL | 16 µg/mL | – | – | greatest activity | 8 µg/mL | 12 µg/mL | greatest activity | 16 µg/mL |
| Cl.N=C(NN=Cc1cccc(F)c1)NN=Cc1cccc(F)c1 [NCL023] | 32 µg/mL | 16 µg/mL | >128 µg/mL | >128 µg/mL | 16 µg/mL | 16 µg/mL | – | – | greatest activity | 24 µg/mL | 20 µg/mL | greatest activity | 16 µg/mL |
| COc1cccc(C=NNC(=N)NN=Cc2cccc(OC)c2)c1.Cl [NCL029] | 32 µg/mL | 32 µg/mL | >128 µg/mL | >128 µg/mL | 32 µg/mL | 32 µg/mL | – | – | greatest activity | 32 µg/mL | 32 µg/mL | greatest activity | 32 µg/mL |
| Cl.N=C(N/N=C/c1ccc(C(F)(F)F)cc1)N/N=C/c1ccc(C(F)(F)F)cc1 [NCL035] | 8 µg/mL and 4 µg/mL | 4 µg/mL | >128 µg/mL | >128 µg/mL | 16 µg/mL | 16 µg/mL | – | – | greatest activity | 5 µg/mL | 10.5 µg/mL | greatest activity | 16 µg/mL |
| CCC(=NNC(=N)NN=C(CC)c1ccc(Cl)cc1)c1ccc(Cl)cc1.Cl [NCL153] | – | – | – | – | – | – | – | – | greatest activity | 8 µg/mL | 16 µg/mL | greatest activity | 24 µg/mL |
| C/C(=N\NC(=N)N/N=C(\C)c1ccc(Br)cc1)c1ccc(Br)cc1.Cl [NCL155] | – | – | – | – | – | – | – | – | greatest activity | 12 µg/mL | 10 µg/mL | greatest activity | 8 µg/mL |
| CC(O)Nc1cc(Cl)ccc1C=NNC(=N)NN=Cc1ccc(Cl)cc1NC(C)O.Cl (stereo not shown) [NCL168] | – | – | – | – | – | – | – | – | greatest activity | – | 40 µg/mL | greatest activity | – |
| N=C(NN=Cc1ccc(Cl)cc1N)NN=Cc1ccc(Cl)cc1N [NCL169] | – | – | – | – | – | – | – | – | greatest activity | 32 µg/mL | 40 µg/mL | greatest activity | – |
| CC(=NNC(=N)NN=C(C)c1ccc(Cl)cc1O)c1ccc(Cl)cc1O.Cl [NCL173] | – | – | – | – | – | – | – | – | greatest activity | 18 µg/mL | 17 µg/mL | greatest activity | 16 µg/mL |
| Cl.N=C(NN=Cc1ccc(Cl)cc1O)NN=Cc1ccc(Cl)cc1O [NCL174] | – | – | – | – | – | – | – | – | greatest activity | 18 µg/mL | 25 µg/mL | greatest activity | 32 µg/mL |
| Cl.N=C(NN=C(CO)c1ccc(Cl)cc1)NN=C(CO)c1ccc(Cl)cc1 [NCL177] | – | – | – | – | – | – | – | – | greatest activity | 6 µg/mL | 7 µg/mL | greatest activity | 8 µg/mL |
| Cl.[H]/N=C(/N)NN=C(CNN)c1ccc(Cl)cc1 [NCL190] | – | – | – | – | – | – | – | – | greatest activity | 32 µg/mL | 28 µg/mL | greatest activity | 24 µg/mL |

Now from value to molecule, other results behind:

| MIC (μg/ml) at 24 hours, VRE 1 [1] | MIC (μg/ml) at 24 hours, VRE 2 [1] | MIC (μg/ml) at 24 hours, P. aeruginosa [2] | MIC (μg/ml) at 24 hours, E. coli [4] | MIC (μg/ml) at 24 hours, MRSA 1 [5] | MIC (μg/ml) at 24 hours, MRSA 2 [5] | MIC [1] | MIC [5] | Structure (SMILES) | activity against VRE among analogues [1] | VRE [1] | M + R [3] | activity against MRSA among analogues [5] | MRSA [5] |
| --- | --- | --- | --- | --- | --- | --- | --- | --- | --- | --- | --- | --- | --- |
| 8** μg/ml and 16** μg/ml | 8** μg/ml | >128 µg/mL | >128 µg/mL | 8** μg/ml | 8** μg/ml | – | – | Cc1ccc(/C=N/NC(=N)N/N=C/c2ccc(C)cc2)cc1.Cl [NCL038] | greatest activity | 10 µg/mL | 9 µg/mL | greatest activity | 8 µg/mL |
| 32 µg/mL | 8 µg/mL | >128 µg/mL and >188 µg/mL | >128 µg/mL | 32 µg/mL and 64 µg/mL | 32 µg/mL | – | – | Cc1ccccc1C=NNC(=N)NN=Cc1ccccc1C.Cl [NCL039] | greatest activity | 20 µg/mL | 30 µg/mL | greatest activity | – |
| 8 µg/mL | 8 µg/mL | >128 µg/mL | >128 µg/mL | 8 µg/mL | 8 µg/mL | – | – | Cc1cccc(C=NNC(=N)NN=Cc2cccc(C)c2)c1.Cl [NCL040] | greatest activity | 8 µg/mL | 8 µg/mL | greatest activity | 8 µg/mL |
| 4 µg/mL | 4 µg/mL | >128 µg/mL | >128 µg/mL | 4 µg/mL and 2 µg/mL | 2 µg/mL and 4 µg/mL | – | – | Cl.N=C(N/N=C/c1cccc(Cl)c1)N/N=C/c1cccc(Cl)c1 [NCL054] | greatest activity | 4 µg/mL | 3.5 µg/mL | greatest activity | 3 µg/mL |
| – | – | – | – | – | – | 2.5 µg/mL | 2 µg/mL | Cl.N=C(NN=Cc1ccc(Cl)cc1N)NN=Cc1ccc(Cl)cc1N [NCL157, 2,2′-bis[(2-amino-4-chlorophenyl)methylene]carbonimidic Dihydrazide Hydrochloride] | greatest activity | – | 2.25 µg/mL | greatest activity | – |
| – | – | – | – | – | – | 4 µg/mL (≈ 9.47 µM) | 4 µg/mL (≈ 9.47 µM) | CC/C(=N\NC(=N)N/N=C(\CC)c1ccc(Cl)cc1O)c1ccc(Cl)cc1O [NCL158] | greatest activity | – | 4 µg/mL | greatest activity | – |
| – | – | – | – | – | – | 4 µg/mL (≈ 9.99 µM) | 2 µg/mL (≈ 5 µM) | Nc1nc(N/N=C/c2ccc(Cl)cc2)cc(N/N=C/c2ccc(Cl)cc2)n1 [NCL179, 4,6-bis(2-((E)-4-chlorobenzylidene)hydrazinyl)pyrimidin-2-amine] | greatest activity | – | 3 µg/mL | greatest activity | – |
